Measured values taken from ChEMBL document CHEMBL1139278 (2009).
≈ marks a conversion by molar mass, not a printed value.

How the values were obtained:
Type in all cases: functional
[1] = tested on: Haemophilus influenzae; test: Antimicrobial activity against Haemophilus influenzae TH13 by NCCLS method
[2] = tested on: Streptococcus pneumoniae; test: Antimicrobial activity against penicillin-susceptible Streptococcus pneumoniae ATCC 49619 by NCCLS method
[3] = tested on: Streptococcus pneumoniae; test: Antimicrobial activity against penicillin-resistant Streptococcus pneumoniae KT2524 by NCCLS method
[4] = tested on: Staphylococcus aureus; test: Antimicrobial activity against methicillin-susceptible Staphylococcus aureus infected iv dosed mouse assessed as survival rate after 1 hr of infection
[5] = tested on: Staphylococcus aureus; test: Antimicrobial activity against methicillin-resistant Staphylococcus aureus KMP9
[6] = tested on: Enterococcus faecium; test: Antimicrobial activity against vancomycin-resistant Enterococcus faecium KU1778 by NCCLS method
[7] = tested on: Moraxella catarrhalis; test: Antimicrobial activity against Moraxella catarrhalis K1209 by NCCLS method
[8] = tested on: Streptococcus pyogenes; test: Antimicrobial activity against Streptococcus pyogenes ATCC 112344 by NCCLS method
[9] = tested on: Staphylococcus aureus; test: Antimicrobial activity against methicillin-susceptible Staphylococcus aureus Smith by NCCLS method

Row | Compound | MIC [1] [µg/mL] | MIC [2] [µg/mL] | MIC [3] [µg/mL] | ED50 [4] [mg/kg] | MIC [5] [µg/mL] | MIC [6] [µg/mL] | MIC [7] [µg/mL] | MIC [8] [µg/mL] | MIC [9] [µg/mL]
1 | C=C[C@]1(C)C[C@@H](OC(=O)CN2CCN(C(=O)CCn3cnc4c(N5CCC(N)C5)ncnc43)CC2)[C@]2(C)[C@H](C)CC[C@]3(CCC(=O)[C@@H]32)[C@@H](C)[C@@H]1O.Cl.Cl (stereo not given in full) | 4 | 0.063 | 0.063 | 0.8 | 1 | 0.5 | 0.25 | 0.032 | 0.25
2 | C=C[C@]1(C)C[C@@H](OC(=O)CN2CCN(C(=O)CCn3cnc4c(N5CC[C@@H](CNC)C5)ncnc43)CC2)[C@]2(C)[C@H](C)CC[C@]3(CCC(=O)[C@@H]32)[C@@H](C)[C@@H]1O.Cl.Cl | 2 | 0.125 | 0.125 | 1.18 | 2 | 0.5 | 0.125 | 0.063 | 0.25
3 | C=C[C@]1(C)C[C@@H](OC(=O)CN2CCN(C(=O)CCn3cnc4c(N5CCC(N)CC5)ncnc43)CC2)[C@]2(C)[C@H](C)CC[C@]3(CCC(=O)[C@@H]32)[C@@H](C)[C@@H]1O.Cl.Cl | 2 | 0.125 | 0.125 | 0.97 | 1 | 0.25 | 0.125 | 0.032 | 0.25
4 | C=C[C@]1(C)C[C@@H](OC(=O)CN2CCN(C(=O)CCn3cnc4c(N5CCC(CN)CC5)ncnc43)CC2)[C@]2(C)[C@H](C)CC[C@]3(CCC(=O)[C@@H]32)[C@@H](C)[C@@H]1O.Cl.Cl | 2 | 0.125 | 0.125 | 1.51 | 1 | 0.25 | 0.125 | 0.032 | 0.25
5 | C=C[C@]1(C)C[C@@H](OC(=O)CN2CCN(C(=O)CCn3cnc4c(N5CCC(N)C5)ncnc43)[C@@H](C)C2)[C@]2(C)[C@H](C)CC[C@]3(CCC(=O)[C@@H]32)[C@@H](C)[C@@H]1O.Cl.Cl (stereo not given in full) | 2 | 0.032 | 0.063 | 1.47 | 0.25 | 0.125 | 0.125 | 0.032 | 0.125
6 | C=C[C@]1(C)C[C@@H](OC(=O)CN2CCN(C(=O)CCn3cnc4c(N5CCC(N(C)C)C5)ncnc43)CC2)[C@]2(C)[C@H](C)CC[C@]3(CCC(=O)[C@@H]32)[C@@H](C)[C@@H]1O.Cl.Cl (stereo not given in full) | 4 | 0.125 | 0.063 | 2.94 | 0.25 | 0.125 | 0.125 | 0.063 | 0.25
7 | C=C[C@]1(C)C[C@@H](OC(=O)CN2CCN(C(=O)CCn3cnc4c(N5CCNCC5)ncnc43)CC2)[C@]2(C)[C@H](C)CC[C@]3(CCC(=O)[C@@H]32)[C@@H](C)[C@@H]1O.Cl.Cl | 2 | 0.063 | 0.063 | 1.65 | 0.25 | 0.063 | 0.063 | 0.032 | 0.125
8 | C=C[C@]1(C)C[C@@H](OC(=O)CN2CCN(C(=O)CCn3cnc4c(N5CCC(N)C5)ncnc43)[C@H](C)C2)[C@]2(C)[C@H](C)CC[C@]3(CCC(=O)[C@@H]32)[C@@H](C)[C@@H]1O.Cl.Cl (stereo not given in full) | 8 | 0.125 | 0.125 | 2.21 | 0.5 | 0.25 | 0.25 | 0.063 | 0.25
9 | C=C[C@]1(C)C[C@@H](OC(=O)CN2CCN(C(=O)CCn3cnc4c(N5CC[C@H](N)C5)ncnc43)[C@@H](C)C2)[C@]2(C)[C@H](C)CC[C@]3(CCC(=O)[C@@H]32)[C@@H](C)[C@@H]1O.Cl.Cl | 4 | 0.032 | 0.032 | 1.1 | 0.5 | 0.125 | 0.125 | 0.016 | 0.25
10 | C=C[C@]1(C)C[C@@H](OC(=O)CN2CCN(C(=O)CCn3cnc4c(N5CCC(NCC)C5)ncnc43)CC2)[C@]2(C)[C@H](C)CC[C@]3(CCC(=O)[C@@H]32)[C@@H](C)[C@@H]1O.Cl.Cl (stereo not given in full) | 4 | 0.125 | 0.125 | 2.21 | 0.5 | 0.25 | 0.125 | 0.063 | 0.25
11 | C=C[C@]1(C)C[C@@H](OC(=O)CN2CCN(C(=O)CCn3cnc4c(N5CCC(CN)C5)ncnc43)CC2)[C@]2(C)[C@H](C)CC[C@]3(CCC(=O)[C@@H]32)[C@@H](C)[C@@H]1O.Cl.Cl (stereo not given in full) | 4 | 0.063 | 0.125 | 1.21 | 2 | 1 | 0.5 | 0.032 | 0.25
12 | C=C[C@]1(C)C[C@@H](OC(=O)CN2CCCN(C(=O)CCn3cnc4c(N5CCC(N)C5)ncnc43)CC2)[C@]2(C)[C@H](C)CC[C@]3(CCC(=O)[C@@H]32)[C@@H](C)[C@@H]1O.Cl.Cl (stereo not given in full) | 4 | 0.063 | 0.063 | 2.51 | 1 | 0.25 | 0.25 | 0.032 | 0.5
13 | C=C[C@]1(C)C[C@@H](OC(=O)CN2CCN(C(=O)CCn3cnc4c(N5CC[C@H](CNC)C5)ncnc43)CC2)[C@]2(C)[C@H](C)CC[C@]3(CCC(=O)[C@@H]32)[C@@H](C)[C@@H]1O.Cl.Cl | 0.5 | 0.125 | 0.063 | 0.83 | 2 | 0.5 | 0.125 | 0.032 | 0.25
14 | C=C[C@]1(C)C[C@@H](OC(=O)CN2CCN(C(=O)CCn3cnc4c(N5CCC(CNC)C5)ncnc43)CC2)[C@]2(C)[C@H](C)CC[C@]3(CCC(=O)[C@@H]32)[C@@H](C)[C@@H]1O.Cl.Cl (stereo not given in full) | 4 | 0.125 | 0.125 | 1.1 | 2 | 1 | 0.5 | 0.032 | 0.25
15 | C=C[C@]1(C)C[C@@H](OC(=O)CN2CCN(C(=O)CCn3cnc4c(N5CCC(N)C5)ncnc43)C(C)C2)[C@]2(C)[C@H](C)CC[C@]3(CCC(=O)[C@@H]32)[C@@H](C)[C@@H]1O.Cl.Cl (stereo not given in full) | 2 | 0.032 | 0.032 | 1.39 | 0.25 | 0.125 | 0.125 | 0.032 | 0.25
16 | C=C[C@]1(C)C[C@@H](OC(=O)CN2CCN(C(=O)CCn3cnc4c(N5CCC(NC)C5)ncnc43)CC2)[C@]2(C)[C@H](C)CC[C@]3(CCC(=O)[C@@H]32)[C@@H](C)[C@@H]1O.Cl (stereo not given in full) | 4 | 0.063 | 0.125 | 1.3 | 1 | 0.25 | 0.25 | 0.032 | 0.25
17 | CN[C@H](CC(C)C)C(=O)N[C@H]1C(=O)N[C@@H](CC(N)=O)C(=O)N[C@H]2C(=O)N[C@H]3C(=O)N[C@H](C(=O)N[C@H](C(=O)O)c4cc(O)cc(O)c4-c4cc3ccc4O)[C@H](O)c3ccc(c(Cl)c3)Oc3cc2cc(c3O[C@@H]2O[C@H](CO)[C@@H](O)[C@H](O)[C@H]2O[C@H]2C[C@](C)(N)[C@H](O)[C@H](C)O2)Oc2ccc(cc2Cl)[C@H]1O [VANCOMYCIN] | > 128 | 0.25 (≈ 0.173 µM) | 0.5 (≈ 0.345 µM) | 0.88 |  | > 128 | 64 (≈ 44.2 µM) |  | 
